Experimental findings from paper PMC8887546, “Design and Synthesis of Brain Penetrant Glycopeptide Analogues of PACAP With Neuroprotective Potential for Traumatic Brain Injury and Parkinsonism” (Frontiers in drug discovery, 2022) are described below.

Type in all cases: cell-based
One assay deals with T1, human VPAC2 receptor (Homo sapiens, UniProt P41587).
T1 construct: expressed in transfected cells; host or cells: CHO cells (G418 selection)
T1 sequence (P41587 24-438): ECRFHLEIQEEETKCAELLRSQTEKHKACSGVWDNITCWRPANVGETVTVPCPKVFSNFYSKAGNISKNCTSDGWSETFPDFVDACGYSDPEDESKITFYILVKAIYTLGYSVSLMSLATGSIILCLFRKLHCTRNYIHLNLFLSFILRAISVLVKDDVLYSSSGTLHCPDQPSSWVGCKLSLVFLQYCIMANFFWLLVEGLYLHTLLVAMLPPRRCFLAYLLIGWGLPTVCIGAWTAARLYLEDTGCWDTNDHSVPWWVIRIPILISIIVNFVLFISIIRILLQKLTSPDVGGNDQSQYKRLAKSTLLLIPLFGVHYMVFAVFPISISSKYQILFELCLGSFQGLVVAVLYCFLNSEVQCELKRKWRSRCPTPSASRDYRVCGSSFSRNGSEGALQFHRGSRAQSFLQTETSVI
As to the kind of experiment: cAMP stimulation in CHO cells expressing VPAC2. To be noted: for Emax: CHO; for Receptor selectivity ratio VPAC2/PAC1 / Receptor selectivity ratio VPAC2/VPAC1: ratio of cAMP EC50 values. The method, then: (§1) Briefly, human PAC1, VPAC1, and VPAC2 receptors expressed in CHO cells were used for all experiments. Cells were grown in 50:50 DMEM-F12 medium with 10% heat-inactivated fetal bovine serum, 1X penicillin-streptomycin supplement, and 500 μg/ml G418 (neomycin) to maintain selection (all from ThermoFisher) at 37°C with 5% CO2 atmosphere. For the cAMP assay, cells were seeded at 20,000 cells/well in a 96 well plate, recovered overnight, then serum starved for 4 h. The cells were then incubated with 500 μM IBMX for 20 min, followed by agonist concentration curves in 500 μM IBMX media for 10 min. The reaction was terminated, boiled, then collected, followed by competition with 7 μg of bovine protein kinase A (Sigma-Aldrich) and ∼1 pmol of ^3H-cAMP (PerkinElmer). The assay was incubated at room temp for 1 h, then collected onto GF/B filter plates and the data read using a MicroBeta2 scintillation counter (PerkinElmer).

For another assay, the target named is T2, human VPAC1 receptor (Homo sapiens, UniProt P32241).
T2 construct: expressed in transfected cells; host or cells: CHO cells (G418 selection)
T2 sequence (P32241 31-457): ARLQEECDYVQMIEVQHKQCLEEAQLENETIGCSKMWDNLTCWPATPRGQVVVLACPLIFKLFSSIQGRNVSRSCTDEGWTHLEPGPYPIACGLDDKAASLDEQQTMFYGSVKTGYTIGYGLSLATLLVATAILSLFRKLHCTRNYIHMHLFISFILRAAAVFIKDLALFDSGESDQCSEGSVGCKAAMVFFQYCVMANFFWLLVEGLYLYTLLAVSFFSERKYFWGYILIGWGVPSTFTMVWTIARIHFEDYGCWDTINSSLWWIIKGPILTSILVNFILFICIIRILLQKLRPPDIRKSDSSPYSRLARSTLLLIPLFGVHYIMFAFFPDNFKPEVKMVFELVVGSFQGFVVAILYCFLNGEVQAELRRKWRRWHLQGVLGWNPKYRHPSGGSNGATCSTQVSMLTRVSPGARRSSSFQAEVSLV
The assay can be described thus: cAMP stimulation in CHO cells expressing VPAC1. To be noted: for Emax: CHO, read-out: VPAC1 Emax; for Receptor selectivity ratio VPAC1/PAC1: ratio of cAMP EC50 values; for EC50: read-out: VPAC1 EC50.

The target of another assay is T3, human PAC1 receptor (Homo sapiens, UniProt P41586).
T3 construct: expressed in transfected cells; host or cells: CHO cells (G418 selection)
T3 sequence (P41586 21-468): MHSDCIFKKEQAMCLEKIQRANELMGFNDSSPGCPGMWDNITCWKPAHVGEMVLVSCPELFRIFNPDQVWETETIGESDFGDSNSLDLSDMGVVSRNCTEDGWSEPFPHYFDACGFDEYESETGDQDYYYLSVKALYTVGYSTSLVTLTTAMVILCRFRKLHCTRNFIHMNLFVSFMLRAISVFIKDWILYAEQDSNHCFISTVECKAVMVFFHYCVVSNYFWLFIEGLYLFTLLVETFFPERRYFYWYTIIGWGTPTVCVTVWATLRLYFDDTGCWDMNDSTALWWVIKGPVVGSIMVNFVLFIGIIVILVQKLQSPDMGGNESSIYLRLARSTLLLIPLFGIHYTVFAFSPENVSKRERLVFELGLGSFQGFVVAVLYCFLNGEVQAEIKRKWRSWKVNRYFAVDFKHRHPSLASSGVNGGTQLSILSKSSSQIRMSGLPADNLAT
As to the kind of experiment: cAMP stimulation in CHO cells expressing PAC1. To be noted: for Emax: CHO. As for the experimental part: as §1

Molecules are shown by their SMILES.

For orientation: EC50 means the concentration giving half of the maximal effect. By Emax is commonly meant the size of the effect at its maximum, as opposed to the concentration needed. For the compound `CCC[C@H](NC(=O)[C@H](CCC(N)=O)NC(=O)[C@H](CCCCN)NC(=O)[C@H](CCCNC(=N)N)NC(=O)[C@H](Cc1ccc(O)cc1)NC(=O)[C@H](CCCNC(=N)N)NC(=O)[C@H](CO)NC(=O)[C@H](Cc1ccc(O)cc1)NC(=O)[C@H](CO)NC(=O)[C@H](CC(=O)O)NC(=O)[C@@H](NC(=O)[C@H](Cc1ccccc1)NC(=O)[C@@H](NC(=O)[C@@H](C)NC(=O)[C@H](CC(=O)O)NC(=O)[C@@H](CO)NC(=O)[C@@H](N)Cc1c[nH]cn1)[C@@H](C)CC)[C@@H](C)O)C(=O)N[C@@H](C)C(=O)N[C@H](C(=O)N[C@@H](CCCCN)C(=O)N[C@@H](CCCCN)C(=O)N[C@@H](Cc1ccc(O)cc1)C(=O)N[C@@H](CC(C)C)C(=O)N[C@@H](C)C(=O)N[C@@H](C)C(=O)N[C@H](C(=O)N[C@@H](CC(C)C)C(=O)N[C@@H](CO[C@@H]1O[C@H](CO)[C@@H](O)[C@H](O)[C@H]1O)C(N)=O)C(C)C)C(C)C` [CRA3021], on human VPAC2 receptor, the EC50 turned out to be 517 nM, the Emax was determined as 74%, the “Receptor selectivity ratio VPAC2/PAC1” value is on record as 16.01 and the “Receptor selectivity ratio VPAC2/VPAC1” value is reported as 13.71. In addition, at human VPAC1 receptor, the Emax stood at 103%, the “Receptor selectivity ratio VPAC1/PAC1” value is listed as 1.17 and the EC50 was determined as 37.7 nM. At human PAC1 receptor, this compound returned an EC50 of 32.3 nM and an Emax of 90%.

As for `CCC[C@H](NC(=O)[C@H](CCC(N)=O)NC(=O)[C@H](CCCCN)NC(=O)[C@H](CCCNC(=N)N)NC(=O)[C@H](Cc1ccc(O)cc1)NC(=O)[C@H](CCCNC(=N)N)NC(=O)[C@H](CO)NC(=O)[C@H](Cc1ccc(O)cc1)NC(=O)[C@H](CO)NC(=O)[C@H](CC(=O)O)NC(=O)[C@@H](NC(=O)[C@H](Cc1ccccc1)NC(=O)[C@@H](CCC)NC(=O)CNC(=O)[C@H](CC(=O)O)NC(=O)[C@@H](CO)NC(=O)[C@H](Cc1c[nH]cn1)NC(C)=O)[C@@H](C)O)C(=O)N[C@@H](C)C(=O)N[C@H](C(=O)N[C@@H](CCCCN)C(=O)N[C@@H](CCCCN)C(=O)N[C@@H](Cc1ccc(O)cc1)C(=O)N[C@@H](CC(C)C)C(=O)N[C@@H](C)C(=O)N[C@@H](C)C(=O)N[C@H](C(=O)N[C@@H](CC(C)C)C(=O)N[C@@H](CO[C@@H]1O[C@H](CO)[C@@H](O)[C@H](O)[C@H]1O)C(N)=O)C(C)C)C(C)C` [Ac-CRA 3020], the EC50 at human VPAC2 receptor is > 2500 nM; on human VPAC1 receptor, 244 nM; on human PAC1 receptor, > 2500 nM. Further, the Emax on human VPAC2 receptor is 71%; on human VPAC1 receptor, 36%; at human PAC1 receptor, 61%.

As for `CCC[C@H](NC(=O)[C@H](CCC(N)=O)NC(=O)[C@H](CCCCN)NC(=O)[C@H](CCCNC(=N)N)NC(=O)[C@H](Cc1ccc(O)cc1)NC(=O)[C@H](CCCNC(=N)N)NC(=O)[C@H](CO)NC(=O)[C@H](Cc1ccc(O)cc1)NC(=O)[C@H](CO)NC(=O)[C@H](CC(=O)O)NC(=O)[C@@H](NC(=O)[C@H](Cc1ccccc1)NC(=O)[C@@H](NC(=O)CNC(=O)[C@H](CC(=O)O)NC(=O)[C@@H](CO)NC(=O)[C@@H](N)Cc1c[nH]cn1)C(C)(C)C)[C@@H](C)O)C(=O)N[C@@H](C)C(=O)N[C@H](C(=O)N[C@@H](CCCCN)C(=O)N[C@@H](CCCCN)C(=O)N[C@@H](Cc1ccc(O)cc1)C(=O)N[C@@H](CC(C)C)C(=O)N[C@@H](C)C(=O)N[C@@H](C)C(=O)N[C@H](C(=O)N[C@@H](CC(C)C)C(=O)N[C@@H](CO[C@@H]1O[C@H](CO)[C@@H](O)[C@H](O)[C@H]1O)C(N)=O)C(C)C)C(C)C` [CRA3015], on human VPAC2 receptor, a half-maximal response (EC50) required 866 nM, the Emax came to 92%, the “Receptor selectivity ratio VPAC2/PAC1” value is 1.93 and the “Receptor selectivity ratio VPAC2/VPAC1” value is reported as 7.22. In addition, on human VPAC1 receptor, the Emax came out at 104%, the “Receptor selectivity ratio VPAC1/PAC1” value amounted to 0.27 and the EC50 stood at 120 nM. On human PAC1 receptor, this compound displayed an EC50 of 448 nM and an Emax of 72%.

In the case of `CCC[C@H](NC(=O)[C@H](CCC(N)=O)NC(=O)[C@H](CCCCN)NC(=O)[C@H](CCCNC(=N)N)NC(=O)[C@H](Cc1ccc(O)cc1)NC(=O)[C@H](CCCNC(=N)N)NC(=O)[C@H](CO)NC(=O)[C@H](Cc1ccc(O)cc1)NC(=O)[C@H](CO)NC(=O)[C@H](CC(=O)O)NC(=O)[C@@H](NC(=O)[C@H](Cc1ccccc1)NC(=O)[C@@H](NC(=O)CNC(=O)[C@H](CC(=O)O)NC(=O)[C@@H](CO)NC(=O)[C@@H](N)Cc1c[nH]cn1)C(C)C)[C@@H](C)O)C(=O)N[C@@H](C)C(=O)N[C@H](C(=O)N[C@@H](CCCCN)C(=O)N[C@@H](CCCCN)C(=O)N[C@@H](Cc1ccc(O)cc1)C(=O)N[C@@H](CC(C)C)C(=O)N[C@@H](C)C(=O)N[C@@H](C)C(=O)N[C@H](C(=O)N[C@@H](CC(C)C)C(=O)N[C@@H](CO[C@@H]1O[C@H](CO)[C@@H](O)[C@H](O)[C@H]1O)C(N)=O)C(C)C)C(C)C` [CRA 3012], on human VPAC2 receptor, the EC50 was 1330 nM, the Emax came out at 107%, the “Receptor selectivity ratio VPAC2/PAC1” value was 16.30 and the “Receptor selectivity ratio VPAC2/VPAC1” value is 6.22. On human VPAC1 receptor, the Emax worked out at 118%, the “Receptor selectivity ratio VPAC1/PAC1” value is given as 2.62 and the EC50 came out at 214 nM. Besides, on human PAC1 receptor, the EC50 was determined as 81.7 nM and the Emax was found to be 80%.

Consider `CCC[C@H](NC(=O)[C@H](CCC(N)=O)NC(=O)[C@H](CCCCN)NC(=O)[C@H](CCCNC(=N)N)NC(=O)[C@H](Cc1ccc(O)cc1)NC(=O)[C@H](CCCNC(=N)N)NC(=O)[C@H](CO)NC(=O)[C@H](Cc1ccc(O)cc1)NC(=O)[C@H](CO)NC(=O)[C@H](CC(=O)O)NC(=O)[C@@H](NC(=O)[C@H](Cc1ccccc1)NC(=O)[C@@H](NC(=O)[C@@H](C)NC(=O)[C@H](CC(=O)O)NC(=O)[C@@H](CO)NC(=O)[C@H](Cc1c[nH]cn1)NC(C)=O)[C@@H](C)CC)[C@@H](C)O)C(=O)N[C@@H](C)C(=O)N[C@H](C(=O)N[C@@H](CCCCN)C(=O)N[C@@H](CCCCN)C(=O)N[C@@H](Cc1ccc(O)cc1)C(=O)N[C@@H](CC(C)C)C(=O)N[C@@H](C)C(=O)N[C@@H](C)C(=O)N[C@H](C(=O)N[C@@H](CC(C)C)C(=O)N[C@@H](CO[C@@H]1O[C@H](CO)[C@@H](O)[C@H](O)[C@H]1O)C(N)=O)C(C)C)C(C)C` [Ac-CRA3021], for which the Emax at human VPAC2 receptor is 93%; on human VPAC1 receptor it was 111%; on human PAC1 receptor, 96%.

As for `CCCC[C@@H](NC(=O)CNC(=O)[C@H](CC(=O)O)NC(=O)[C@@H](CO)NC(=O)[C@H](Cc1c[nH]cn1)NC(C)=O)C(=O)N[C@@H](Cc1ccccc1)C(=O)N[C@H](C(=O)N[C@@H](CC(=O)O)C(=O)N[C@@H](CO)C(=O)N[C@@H](Cc1ccc(O)cc1)C(=O)N[C@@H](CO)C(=O)N[C@@H](CCCNC(=N)N)C(=O)N[C@@H](Cc1ccc(O)cc1)C(=O)N[C@@H](CCCNC(=N)N)C(=O)N[C@@H](CCCCN)C(=O)N[C@@H](CCC(N)=O)C(=O)N[C@@H](CCC)C(=O)N[C@@H](C)C(=O)N[C@H](C(=O)N[C@@H](CCCCN)C(=O)N[C@@H](CCCCN)C(=O)N[C@@H](Cc1ccc(O)cc1)C(=O)N[C@@H](CC(C)C)C(=O)N[C@@H](C)C(=O)N[C@@H](C)C(=O)N[C@H](C(=O)N[C@@H](CC(C)C)C(=O)N[C@@H](CO[C@@H]1O[C@H](CO)[C@@H](O)[C@H](O)[C@H]1O)C(N)=O)C(C)C)C(C)C)[C@@H](C)O` [Ac-CRA 3019], the EC50 on human VPAC2 receptor was > 2500 nM; at human PAC1 receptor it was 1640 nM. In addition, the Emax is 62% on human VPAC2 receptor, 18% on human VPAC1 receptor and 58% at human PAC1 receptor.
